Test results published in ChEMBL document CHEMBL1671854, “ramR mutations involved in efflux-mediated multidrug resistance in Salmonella enterica serovar Typhimurium” (2008).

How the values were obtained:
Format in all cases: functional, Salmonella enterica subsp. enterica serovar Typhimurium
[1] = tested on: Salmonella typhimurium; assay: Antimicrobial activity against multidrug-resistant Salmonella enterica serovar Typhimurium 902SA92 harboring GyrA S83A and D87N, GyrB S464F and ParC S80I mutant genes by agar doubling dilution method
[2] = tested on: Salmonella typhimurium; assay: Antimicrobial activity against multidrug-resistant Salmonella enterica serovar Typhimurium 902SA92 harboring plasmid encoded RamR gene, GyrA S83A and D87N, GyrB S464F and ParC S80I mutant genes by agar doubling dilution method
[3] = tested on: Salmonella typhimurium; assay: Antimicrobial activity against ramA::kan-deficient Salmonella enterica serovar Typhimurium 902SA92 harboring GyrA S83A and D87N, GyrB S464F and ParC S80I mutant genes by agar doubling dilution method
[4] = tested on: Salmonella typhimurium; assay: Antimicrobial activity against multidrug-resistant Salmonella enterica serovar Typhimurium 102SA00 harboring GyrA S83A and D87N, GyrB S464F and ParC S80I mutant genes by agar doubling dilution method
[5] = tested on: Salmonella typhimurium; assay: Antimicrobial activity against multidrug-resistant Salmonella enterica serovar Typhimurium 102SA00 harboring plasmid encoded RamR gene, GyrA S83A and D87N, GyrB S464F and ParC S80I mutant genes by agar doubling dilution method
[6] = tested on: Salmonella typhimurium; assay: Antimicrobial activity against ramA::kan-deficient Salmonella enterica serovar Typhimurium 102SA00 harboring GyrA S83A and D87N, GyrB S464F and ParC S80I mutant genes by agar doubling dilution method
[7] = tested on: Salmonella typhimurium; assay: Antimicrobial activity against multidrug-resistant Salmonella enterica serovar Typhimurium BN10055 harboring GyrA S83Y mutant gene by agar doubling dilution method
[8] = tested on: Salmonella typhimurium; assay: Antimicrobial activity against multidrug-resistant Salmonella enterica serovar Typhimurium BN10055 harboring plasmid encoded RamR gene, GyrA S83Y mutant gene by agar doubling dilution method
[9] = tested on: Salmonella typhimurium; assay: Antimicrobial activity against ramA::kan-deficient Salmonella enterica serovar Typhimurium BN10055 harboring GyrA S83Y mutant gene by agar doubling dilution method
[10] = tested on: Salmonella typhimurium; assay: Antimicrobial activity against multidrug-resistant Salmonella enterica serovar Typhimurium 543SA98 harboring GyrA […] mutant gene by agar doubling dilution method
[11] = tested on: Salmonella typhimurium; assay: Antimicrobial activity against multidrug-resistant Salmonella enterica serovar Typhimurium 543SA98 harboring plasmid encoded RamR gene, GyrA S83Y mutant gene by agar doubling dilution method
[12] = tested on: Salmonella typhimurium; assay: Antimicrobial activity against ramA::kan-deficient Salmonella enterica serovar Typhimurium 543SA98 harboring GyrA S83Y mutant gene by agar doubling dilution method
[13] = tested on: Salmonella typhimurium; assay: Antimicrobial activity against multidrug-resistant Salmonella enterica serovar Typhimurium BN9945 by agar doubling dilution method
[14] = tested on: Salmonella typhimurium; assay: Antimicrobial activity against multidrug-resistant Salmonella enterica serovar Typhimurium BN9945 harboring plasmid encoded RamR gene by agar doubling dilution method
[15] = tested on: Salmonella typhimurium; assay: Antimicrobial activity against ramA::kan-deficient Salmonella enterica serovar Typhimurium BN9945 by agar doubling dilution method
[16] = tested on: Salmonella typhimurium; assay: Antimicrobial activity against multidrug-resistant Salmonella enterica serovar Typhimurium BN9181 by agar doubling dilution method
[17] = tested on: Salmonella typhimurium; assay: Antimicrobial activity against multidrug-resistant Salmonella enterica serovar Typhimurium BN9181 harboring plasmid encoded RamR gene by agar doubling dilution method
[18] = tested on: Salmonella typhimurium; assay: Antimicrobial activity against ramA::kan-deficient Salmonella enterica serovar Typhimurium BN9181 by agar doubling dilution method
[19] = tested on: Salmonella typhimurium; assay: Antimicrobial activity against Salmonella enterica serovar Typhimurium S/921495 by agar doubling dilution method
[20] = tested on: Salmonella typhimurium; assay: Antimicrobial activity against marR::kan-deficient Salmonella enterica serovar Typhimurium S/921495 by agar doubling dilution method
[21] = tested on: Salmonella typhimurium; assay: Antimicrobial activity against marR-deficient Salmonella enterica serovar Typhimurium S/921495 by agar doubling dilution method
[22] = tested on: Salmonella typhimurium; assay: Antimicrobial activity against marA::kan-deficient Salmonella enterica serovar Typhimurium S/921495 by agar doubling dilution method
[23] = tested on: Salmonella typhimurium; assay: Antimicrobial activity against soxR::kan-deficient Salmonella enterica serovar Typhimurium S/921495 by agar doubling dilution method
[24] = tested on: Salmonella typhimurium; assay: Antimicrobial activity against soxS::kan-deficient Salmonella enterica serovar Typhimurium S/921495 by agar doubling dilution method
[25] = tested on: Salmonella typhimurium; assay: Antimicrobial activity against Salmonella enterica serovar Typhimurium S/921495 harboring plasmid encoded RamR gene by agar doubling dilution method
[26] = tested on: Salmonella typhimurium; assay: Antimicrobial activity against ramR-deficient Salmonella enterica serovar Typhimurium S/921495 harboring plasmid encoded RamR gene by agar doubling dilution method
[27] = tested on: Salmonella typhimurium; assay: Antimicrobial activity against ramA::kan-deficient Salmonella enterica serovar Typhimurium S/921495 by agar doubling dilution method
[28] = tested on: Salmonella typhimurium; assay: Antimicrobial activity against Salmonella enterica serovar Typhimurium BN18 by agar doubling dilution method
[29] = tested on: Salmonella typhimurium; assay: Antimicrobial activity against Salmonella enterica serovar Typhimurium BN18 harboring plasmid encoded RamR gene by agar doubling dilution method
[30] = tested on: Salmonella typhimurium; assay: Antimicrobial activity against ramA::kan-deficient Salmonella enterica serovar Typhimurium BN18 by agar doubling dilution method
[31] = tested on: Salmonella typhimurium; assay: Antimicrobial activity against Salmonella enterica serovar Typhimurium BN18/21 by agar doubling dilution method
[32] = tested on: Salmonella typhimurium; assay: Antimicrobial activity against Salmonella enterica serovar Typhimurium BN18/21 harboring plasmid encoded RamR gene by agar doubling dilution method
[33] = tested on: Salmonella typhimurium; assay: Antimicrobial activity against ramA::kan-deficient Salmonella enterica serovar Typhimurium BN18/21 by agar doubling dilution method
[34] = tested on: Salmonella typhimurium; assay: Antimicrobial activity against Salmonella enterica serovar Typhimurium BN18/41 harboring GyrA G81C,acrR mutant genes by agar doubling dilution method
[35] = tested on: Salmonella typhimurium; assay: Antimicrobial activity against Salmonella enterica serovar Typhimurium BN18/41 harboring plasmid encoded RamR gene, GyrA G81C,acrR mutant genes by agar doubling dilution method
[36] = tested on: Salmonella typhimurium; assay: Antimicrobial activity against ramA::kan-deficient Salmonella enterica serovar Typhimurium BN18/41 harboring plasmid encoded RamR gene, GyrA G81C,acrR mutant genes by agar doubling dilution method
[37] = tested on: Salmonella typhimurium; assay: Antimicrobial activity against Salmonella enterica serovar Typhimurium BN18/71 harboring GyrA G81C, acrR mutant genes by agar doubling dilution method
[38] = tested on: Salmonella typhimurium; assay: Antimicrobial activity against Salmonella enterica serovar Typhimurium BN18/71 harboring plasmid encoded RamR gene, GyrA G81C,acrR mutant genes by agar doubling dilution method
[39] = tested on: Salmonella typhimurium; assay: Antimicrobial activity against ramA::kan-deficient Salmonella enterica serovar Typhimurium BN18/71 harboring plasmid encoded RamR gene, GyrA G81C,acrR mutant genes by agar doubling dilution method
[40] = tested on: Salmonella typhimurium; assay: Antimicrobial activity against ramR::kan-deficient Salmonella enterica serovar Typhimurium S/921495 by agar doubling dilution method
[41] = tested on: Salmonella typhimurium; assay: Antimicrobial activity against ramR-deficient Salmonella enterica serovar Typhimurium S/921495 by agar doubling dilution method

Measured: MIC

CCn1cc(C(=O)O)c(=O)c2ccc(C)nc21 [NALIDIXIC ACID]
16 µg/mL: [40] | [41]
64 µg/mL: [31]
> 4100 µg/mL: [1] | [4] | [7] | [8] | [34] | [37]
512 µg/mL: [9] | [11] | [12] | [14] | [15]
8 µg/mL: [32] | [33]
1020 µg/mL: [10] | [13]
4100 µg/mL: [2] | [3] | [5] | [6] | [35] | [36] | [38] | [39]
2 µg/mL: [20] | [21] | [23]
4 µg/mL: all other assays above

CN(C)[C@@H]1C(O)=C(C(N)=O)C(=O)[C@@]2(O)C(O)=C3C(=O)c4c(O)cccc4[C@@](C)(O)[C@H]3C[C@@H]12 [TETRACYCLINE]
128 µg/mL: [10] | [13]
2 µg/mL: [35] | [36] | [38] | [39]
32 µg/mL: [11] | [12] | [14] | [15] | [16] | [17] | [18]
8 µg/mL: [34]
4 µg/mL: [31] | [40] | [41]
256 µg/mL: [1] | [2] | [3] | [4] | [5] | [6] | [7] | [8]
64 µg/mL: [9]
16 µg/mL: [37]
1 µg/mL: all other assays above
